This note sets out measurements from PubChem BioAssay (NCI).

Among the test systems are SK-MEL-2 melanoma; NCI-H460 lung; SNB-19 CNS; K-562 leukemia; SW-620 colon; SK-MEL-28 melanoma; MDA-MB-435; HOP-62 NSCLC; HCT-15 colon; EKVX NSCLC.
Common to all, as to assay: NCI-60 cell line screen, 48 h

SMILES strings stand for the structures. “And” between values parts separate entries of the source, which are not always exact repeats. Equal entries are not always repeated.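 Each compound was tested at five concentrations against cells in 96-well plates for 48 hours. GI50 is the concentration that inhibits growth by half. The concentration for full growth arrest is given as TGI.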 Bounds are passed on as bounds.

As to `Cn1c([N+](=O)[O-])cnc1/C=C1\Oc2ccccc2C1=O`, the GI50 was 0.255 µM in the assay on SK-MEL-2 melanoma; 0.314 µM in the assay with NCI-H460 lung; 1.47 µM in the assay on SNB-19 CNS; 0.487 µM in the assay with K-562 leukemia; 0.15 µM in the assay on SW-620 colon; 0.43 µM with SK-MEL-28 melanoma. Besides, the GI50 was 0.175 µM with MDA-MB-435, 1.07 µM in the assay with HOP-62 NSCLC and 0.193 µM with HCT-15 colon. Moreover, the TGI was 0.663 µM in the assay with SK-MEL-2 melanoma; 1.72 µM in the assay with NCI-H460 lung; 5.58 µM in the assay with SNB-19 CNS; 7.02 µM with K-562 leukemia; 2.02 µM with SW-620 colon; 3.36 µM in the assay on SK-MEL-28 melanoma. Moreover, the TGI with MDA-MB-435 was 0.395 µM; with HOP-62 NSCLC, 4.42 µM; in the assay on HCT-15 colon it was 0.675 µM.
In the case of `CC[C@H](NC(=O)[C@H](C)NC)C(=O)N1C[C@@H](O)C[C@H]1Cc1c(-c2[nH]c3cc(F)ccc3c2C[C@@H]2C[C@H](O)CN2C(=O)[C@H](CC)NC(=O)[C@H](C)NC)[nH]c2cc(F)ccc12`, the GI50 with SK-MEL-2 melanoma is 6.01 µM; in the assay on NCI-H460 lung, more than 100 µM; with SNB-19 CNS, more than 100 µM; in the assay with K-562 leukemia, 47.3 µM; in the assay on SW-620 colon, more than 100 µM; with SK-MEL-28 melanoma it was more than 100 µM. In addition, the values for the GI50 with HOP-62 NSCLC and in the assay with HCT-15 colon were 27.5 µM and more than 100 µM, respectively. Also, the TGI in the assay on SK-MEL-2 melanoma, with NCI-H460 lung, with SNB-19 CNS, with K-562 leukemia, in the assay on SW-620 colon and in the assay on SK-MEL-28 melanoma was more than 100 µM throughout. Also, the TGI in the assay with MDA-MB-435, with HOP-62 NSCLC and in the assay with HCT-15 colon was more than 100 µM throughout.
On to `O=C(Nc1cc(Cl)c(Cl)cc1Cl)C(=O)C1C=CCS1(=O)=O` (stereo not drawn), for which the TGI in the assay with SK-MEL-2 melanoma, in the assay on NCI-H460 lung, in the assay with SNB-19 CNS, in the assay on K-562 leukemia, with SW-620 colon and with SK-MEL-28 melanoma was more than 100 µM each time. For the same compound, the TGI with HOP-62 NSCLC, in the assay with EKVX NSCLC and with HCT-15 colon was more than 100 µM each time.
For `Cc1c(NC(=O)C(C)(C)Br)c(=O)oc2c(C)c3occc(=O)c3cc12`, the TGI in the assay on SK-MEL-2 melanoma, in the assay with NCI-H460 lung, in the assay with SNB-19 CNS, in the assay on K-562 leukemia, in the assay with SW-620 colon and in the assay with SK-MEL-28 melanoma was more than 100 µM in each case. Also, the TGI with HOP-62 NSCLC, in the assay on EKVX NSCLC and in the assay on HCT-15 colon was more than 100 µM in each case.
As to `COC(=O)CCc1cc(OC)c2c(c1)C(C(=O)OC)C(c1ccc(OC)c(OC)c1)O2` (stereo not drawn), the TGI in the assay with SK-MEL-2 melanoma, with NCI-H460 lung, in the assay with SNB-19 CNS, in the assay with K-562 leukemia, with SW-620 colon and in the assay with SK-MEL-28 melanoma was more than 100 µM each time. The TGI in the assay with HOP-62 NSCLC, in the assay on EKVX NSCLC and in the assay on HCT-15 colon was more than 100 µM throughout. The GI50 with NCI-H460 lung is > 100 µM and 46.4 µM; in the assay on SNB-19 CNS, > 100 µM and 15.8 µM; with SW-620 colon, > 100 µM and 17.3 µM; in the assay with SK-MEL-28 melanoma, 21.9 µM and > 100 µM; in the assay with HOP-62 NSCLC, > 100 µM and 36.6 µM.
Regarding `O=c1c(Oc2ccc(F)cc2F)cc2cnc(NC3CCOCC3)nc2n1C1CCS(=O)(=O)CC1`, the GI50 with SK-MEL-2 melanoma, in the assay with NCI-H460 lung, in the assay on SNB-19 CNS, with K-562 leukemia, in the assay with SW-620 colon and with SK-MEL-28 melanoma was more than 25 µM each time. Besides, the GI50 in the assay on MDA-MB-435, in the assay with HOP-62 NSCLC and with HCT-15 colon was more than 25 µM in each case. Also, the TGI with SK-MEL-2 melanoma, in the assay with NCI-H460 lung, with SNB-19 CNS, with K-562 leukemia, in the assay on SW-620 colon and in the assay with SK-MEL-28 melanoma was more than 25 µM each time. The TGI in the assay with MDA-MB-435, with HOP-62 NSCLC and in the assay on HCT-15 colon was more than 25 µM each time.
As to `O=C1OC(CC(=O)c2ccc(Cl)c(Cl)c2)C(Cl)=C1Cl` (stereo not drawn), the TGI in the assay on SK-MEL-2 melanoma, in the assay on NCI-H460 lung, in the assay with SNB-19 CNS, with K-562 leukemia, in the assay on SW-620 colon and with SK-MEL-28 melanoma was more than 100 µM each time. Besides, the TGI in the assay with HOP-62 NSCLC, in the assay with EKVX NSCLC and in the assay with HCT-15 colon was more than 100 µM each time.
For `COC(=O)C1C(C(=O)OC)C2(OC)c3ccccc3-c3ccccc3C12` (stereo not drawn), the TGI in the assay with SK-MEL-2 melanoma is 54.5 µM; in the assay with NCI-H460 lung it was more than 100 µM; in the assay with SNB-19 CNS it was more than 100 µM; in the assay with K-562 leukemia it was 76.9 µM; with SW-620 colon, more than 100 µM; with SK-MEL-28 melanoma it was more than 100 µM. The TGI with HOP-62 NSCLC, in the assay with EKVX NSCLC and in the assay on HCT-15 colon was more than 100 µM throughout.
For `CCCCOC(=O)NC(=O)c1cn(CCCOC(=O)CCCCCCCCC(=O)OCCCn2cc(C(=O)NC(=O)OCCCC)c(=O)[nH]c2=O)c(=O)[nH]c1=O`, the TGI in the assay on SK-MEL-2 melanoma, in the assay with NCI-H460 lung, in the assay with SNB-19 CNS, in the assay with K-562 leukemia, with SW-620 colon and in the assay with SK-MEL-28 melanoma was more than 100 µM each time. Further, the TGI in the assay on HOP-62 NSCLC, in the assay with EKVX NSCLC and in the assay on HCT-15 colon was more than 100 µM in each case.
`COc1ccc(NC(=O)C(=O)C(C(=O)c2ccccc2)C2OC(=O)c3ccccc32)c([N+](=O)[O-])c1` (stereo not drawn): the TGI in the assay on SK-MEL-2 melanoma, with NCI-H460 lung, in the assay on SNB-19 CNS, with K-562 leukemia, in the assay with SW-620 colon and with SK-MEL-28 melanoma was more than 100 µM in each case. In addition, the TGI with HOP-62 NSCLC, with EKVX NSCLC and in the assay with HCT-15 colon was more than 100 µM in each case.
Turning to `CCNC(=O)CCN(C(=O)O)S(=O)(=O)c1ccc(NC(=O)c2ccccc2)cc1`, the TGI in the assay on SK-MEL-2 melanoma is more than 100 µM; in the assay with NCI-H460 lung, more than 100 µM; in the assay on SNB-19 CNS it was more than 100 µM; in the assay with K-562 leukemia, more than 100 µM; with SW-620 colon, 32 µM; in the assay on SK-MEL-28 melanoma, more than 100 µM. For the same compound, the TGI in the assay on HOP-62 NSCLC, in the assay with EKVX NSCLC and in the assay with HCT-15 colon was more than 100 µM each time.
In the case of `CC(C)CS(=O)(=O)/C(=C(\c1ccc(Br)cc1)S(=O)(=O)CC(C)C)c1ccc(Br)cc1`, the TGI in the assay on SK-MEL-2 melanoma, in the assay with NCI-H460 lung, in the assay with SNB-19 CNS, in the assay with K-562 leukemia, in the assay on SW-620 colon and in the assay on SK-MEL-28 melanoma was more than 100 µM throughout. Besides, the TGI with HOP-62 NSCLC, with EKVX NSCLC and in the assay with HCT-15 colon was more than 100 µM in each case.
On to `CC(=O)[O-].CC(=O)[O-].[Pt+2].c1cscn1.c1cscn1`, for which the GI50 in the assay on SK-MEL-2 melanoma is more than 100 µM; in the assay on NCI-H460 lung, more than 100 µM; in the assay with SNB-19 CNS, more than 100 µM; in the assay with K-562 leukemia, 42.7 µM; with SW-620 colon, 47.5 µM; in the assay with SK-MEL-28 melanoma it was more than 100 µM. Also, the GI50 in the assay on MDA-MB-435 is more than 100 µM; in the assay with HOP-62 NSCLC, more than 100 µM; with HCT-15 colon, 77.5 µM. The TGI with SK-MEL-2 melanoma, in the assay on NCI-H460 lung, with SNB-19 CNS, with K-562 leukemia, with SW-620 colon and in the assay on SK-MEL-28 melanoma was more than 100 µM throughout. Further, the TGI in the assay on MDA-MB-435, in the assay with HOP-62 NSCLC and in the assay on HCT-15 colon was more than 100 µM in each case.
Turning to `COc1cc(OC)c(/C=C/S(=O)(=O)Cc2cnc(OC)c(N)c2)c(OC)c1`, the GI50 in the assay on SK-MEL-2 melanoma is less than 0.01 µM; in the assay on NCI-H460 lung it was less than 0.02 µM; in the assay with SNB-19 CNS, less than 0.0223 µM; in the assay with K-562 leukemia, less than 0.013 µM; with SW-620 colon, less than 0.0188 µM; with SK-MEL-28 melanoma it was 20.4 µM. Also, the figures for the GI50 in the assay on HOP-62 NSCLC, with EKVX NSCLC and in the assay with HCT-15 colon were less than 0.0185 µM, 0.223 µM and less than 0.019 µM, respectively. For the same compound, the TGI in the assay on SK-MEL-2 melanoma, in the assay with NCI-H460 lung, in the assay on SNB-19 CNS, in the assay on K-562 leukemia, in the assay on SW-620 colon and in the assay on SK-MEL-28 melanoma was more than 100 µM each time. In addition, the TGI in the assay with HOP-62 NSCLC, in the assay with EKVX NSCLC and in the assay on HCT-15 colon was more than 100 µM in each case.
Turning to `CCCCCCCCC[C@@H]1CC(=O)OCC2OC(O[C@H](CCCCCCCCC)CC(=O)OCC3OC(O[C@H](CCCCCCCCC)CC(=O)OCC4OC(O1)C(O)C(O)C4O)C(O)C(O)C3O)C(O)C(O)C2O` (stereo partly drawn), the TGI in the assay on SK-MEL-2 melanoma was 22.3 µM; in the assay with NCI-H460 lung, 17.3 µM; in the assay on SNB-19 CNS, 23.6 µM; in the assay on K-562 leukemia it was 15.1 µM; in the assay on SW-620 colon, 17.8 µM; with SK-MEL-28 melanoma, 18.6 µM. Besides, the figures for the TGI in the assay on HOP-62 NSCLC, in the assay on EKVX NSCLC and in the assay on HCT-15 colon were 26.1 µM, 25.1 µM and 21 µM, respectively.
Turning to `CCCCc1c2c(nc3c1CCC/C3=C\c1ccccc1)C(=O)CCC2`, the TGI in the assay with SK-MEL-2 melanoma was 33.9 µM; in the assay with NCI-H460 lung, more than 100 µM; in the assay on SNB-19 CNS, 44.2 µM; in the assay with K-562 leukemia, 85.2 µM; in the assay on SW-620 colon, 45 µM; with SK-MEL-28 melanoma it was 41.8 µM. Also, the values for the TGI in the assay with HOP-62 NSCLC, with EKVX NSCLC and in the assay with HCT-15 colon were 42 µM, 68.4 µM and 51.9 µM, respectively.
